Patent publication US6737383B1, “Herbicidal oxadiazolidines” (priority 1999, dated 2004)

How the values were obtained:
blackgrass = assay: Test B pre/postemergence blackgrass; type: in vivo, Alopecurus myosuroides
Outline: (§1)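 Herbicidal effect was estimated by eye on a ten-point control scale after plants spent twelve to sixteen days in a greenhouse following soil or foliar treatment. Foliar sprays targeted plants at one to four leaves; all doses were formulated in a non-phytotoxic solvent with surfactant.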

surinam grass = assay: Test B pre/postemergence surinam grass; type: in vivo, Brachiaria decumbens
Outline: as §1

cocklebur = assay: Test B pre/postemergence cocklebur; type: in vivo, Xanthium strumarium
Outline: as §1

corn = assay: Test B pre/postemergence corn; type: in vivo, Zea mays
Outline: as §1

crabgrass = assay: Test B pre/postemergence crabgrass; type: in vivo, Digitaria sanguinalis
Outline: as §1

giant foxtail = assay: Test B pre/postemergence giant foxtail; type: in vivo, Setaria faberii
Outline: as §1

morningglory = assay: Test B pre/postemergence morningglory; type: in vivo, Ipomoea hederacea; settings: for Plant response rating, Morningglory: scale of 0 to 10 where 0 is no effect and 10 is complete control
Outline: as §1

pigweed = assay: Test B pre/postemergence pigweed; type: in vivo, Amaranthus retroflexus; settings: for Plant response rating, Redroot pigweed: scale of 0 to 10 where 0 is no effect and 10 is complete control
Outline: as §1

rape = assay: Test B pre/postemergence rape; type: in vivo, Brassica napus; settings: for Plant response rating, Rape: scale of 0 to 10 where 0 is no effect and 10 is complete control
Outline: as §1

soybean = assay: Test B pre/postemergence soybean; type: in vivo, Glycine max; settings: for Plant response rating, Soybean: scale of 0 to 10 where 0 is no effect and 10 is complete control
Outline: as §1

sugar beet = assay: Test B pre/postemergence sugar beet; type: in vivo, Beta vulgaris; settings: for Plant response rating, Sugarbeets: scale of 0 to 10 where 0 is no effect and 10 is complete control
Outline: as §1

velvetleaf = assay: Test B pre/postemergence velvetleaf; type: in vivo, Abutilon theophrasti; settings: for Plant response rating, Velvetleaf: scale of 0 to 10 where 0 is no effect and 10 is complete control
Outline: as §1

wheat = assay: Test B pre/postemergence wheat; type: in vivo, Triticum aestivum; settings: for Plant response rating, Wheat: scale of 0 to 10 where 0 is no effect and 10 is complete control
Outline: as §1

wild oat = assay: Test B pre/postemergence wild oat; type: in vivo, Avena fatua; settings: for Plant response rating, Wild oats: scale of 0 to 10 where 0 is no effect and 10 is complete control
Outline: as §1

purple nutsedge = assay: Test B pre/postemergence purple nutsedge; type: in vivo, Cyperus rotundus; settings: for Plant response rating, Nutsedge: scale of 0 to 10 where 0 is no effect and 10 is complete control
Outline: as §1

rice = assay: Test B flood test rice; type: in vivo, Oryza sativa
Outline: (§2)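 Plants were grown to the 2-leaf stage before treatment with test chemical, then held in a greenhouse for twelve to sixteen days. Injury was visually rated against untreated controls on a 0–10 scale, where 0 is no effect and 10 is complete control.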

smallflower flatsedge = assay: Test B flood test smallflower flatsedge; type: in vivo, Cyperus difformis
Outline: as §2

duck salad = assay: Test B flood test duck salad; type: in vivo, Heteranthera limosa
Outline: as §2

bamyardgrass = assay: Test B flood test barnyardgrass; type: in vivo, Echinochloa crus-galli
Outline: as §2

[1] = Postemergence, Rate 250 g/ha, scale 0 to 10
[2] = Postemergence, Rate 500 g/ha, scale of 0 to 10 where 0 is no effect and 10 is complete control
[3] = Preemergence, Rate 62 g/ha, scale of 0 to 10 where 0 is no effect and 10 is complete control
[4] = Preemergence, Rate 125 g/ha, scale of 0 to 10 where 0 is no effect and 10 is complete control
[5] = Preemergence, Rate 250 g/ha, scale 0 to 10, 0 is no effect, 10 is complete control
[6] = Preemergence, Rate 500 g/ha, scale 0 to 10, 0 is no effect, 10 is complete control
[7] = Rate 62 g/ha, Postemergence, scale 0 to 10 (0 no effect, 10 complete control)
[8] = Rate 125 g/ha, Postemergence, scale 0 to 10, 0 is no effect, 10 is complete control
[9] = Rate 62 g/ha, flood test species, Pre-emergence, visual evaluation after twelve to sixteen days
[10] = Rate 125 g/ha, under heading Pre-emergence, flood test species, visual evaluation after twelve to sixteen days
[11] = Rate 250 g/ha, Pre-emergence (flood test species), scale 0 to 10, 0 is no effect, 10 is complete control
[12] = Rate 500 g/ha, Pre-emergence, flood test species, scale 0 to 10 (0 no effect, 10 complete control)

CC(C)N(C(=O)n1oc(=O)n(C(CF)CF)c1=O)c1ccc(Cl)cc1 [Compound 468]
Blackgrass plant response rating (blackgrass; [1]): 7 | Blackgrass plant response rating (blackgrass; [2]): 8 | Plant response rating, Blackgrass (blackgrass; [3]): 3 | Plant response rating, Blackgrass (blackgrass; [4]): 4 | Blackgrass plant response rating (blackgrass; [5]): 5 | Blackgrass plant response rating (blackgrass; [6]): 9 | Blackgrass plant response rating (blackgrass; [7]): 0 | Blackgrass plant response rating (blackgrass; [8]): 5 | B. signalgrass plant response rating (surinam grass; Postemergence, Rate 250 g/ha, scale 0 to 10, 0 no effect, 10 complete control): 0 | B. signalgrass plant response rating (surinam grass; [2]): 0 | Plant response rating, B. signalgrass (surinam grass; [3]): 0 | Plant response rating, B. signalgrass (surinam grass; [4]): 2 | B. signalgrass plant response rating (surinam grass; [5]): 3 | B. signalgrass plant response rating (surinam grass; [6]): 4 | B. signalgrass plant response rating (surinam grass; [7]): 0 | B. signalgrass plant response rating (surinam grass; [8]): 0 | Cocklebur plant response rating (cocklebur; [1]): 2 | Cocklebur plant response rating (cocklebur; [2]): 4 | Plant response rating, Cocklebur (cocklebur; [3]): 0 | Plant response rating, Cocklebur (cocklebur; [4]): 0 | Cocklebur plant response rating (cocklebur; [5]): 0 | Cocklebur plant response rating (cocklebur; [6]): 0 | Cocklebur plant response rating (cocklebur; [7]): 0 | Cocklebur plant response rating (cocklebur; [8]): 0 | Corn plant response rating (corn; [1]): 0 | Corn plant response rating (corn; [2]): 0 | Plant response rating, Corn (corn; [3]): 0 | Plant response rating, Corn (corn; [4]): 0 | Corn plant response rating (corn; [5]): 0 | Corn plant response rating (corn; [6]): 2 | Corn plant response rating (corn; [7]): 0 | Corn plant response rating (corn; [8]): 0 | Crabgrass plant response rating (crabgrass; [1]): 9 | Crabgrass plant response rating (crabgrass; [2]): 9 | Plant response rating, Crabgrass (crabgrass; [3]): 9 | Plant response rating, Crabgrass (crabgrass; [4]): 9 | Crabgrass plant response rating (crabgrass; [5]): 9 | Crabgrass plant response rating (crabgrass; [6]): 9 | Crabgrass plant response rating (crabgrass; [7]): 3 | Giant foxtail plant response rating (giant foxtail; [1]): 9 | Giant foxtail plant response rating (giant foxtail; [2]): 9 | Plant response rating, Giant foxtail (giant foxtail; [3]): 6 | Plant response rating, Giant foxtail (giant foxtail; [4]): 8 | Giant foxtail plant response rating (giant foxtail; [5]): 9 | Giant foxtail plant response rating (giant foxtail; [6]): 10 | Giant foxtail plant response rating (giant foxtail; [7]): 1 | Giant foxtail plant response rating (giant foxtail; [8]): 3 | Morningglory plant response rating (morningglory; [1]): 4 | Plant response rating, Morningglory (morningglory; Preemergence, Rate 62 g/ha): 0 | Plant response rating, Morningglory (morningglory; Preemergence, Rate 125 g/ha): 0 | Morningglory plant response rating (morningglory; [5]): 0 | Morningglory plant response rating (morningglory; [6]): 2 | Morningglory plant response rating (morningglory; [7]): 2 | Morningglory plant response rating (morningglory; [8]): 3 | Redroot pigweed plant response rating (pigweed; [1]): 4 | Plant response rating, Redroot pigweed (pigweed; Preemergence, Rate 62 g/ha): 0 | Plant response rating, Redroot pigweed (pigweed; Preemergence, Rate 125 g/ha): 4 | Redroot pigweed plant response rating (pigweed; [5]): 8 | Redroot pigweed plant response rating (pigweed; [6]): 10 | Redroot pigweed plant response rating (pigweed; [7]): 0 | Redroot pigweed plant response rating (pigweed; [8]): 2 | Rape plant response rating (rape; [1]): 0 | Plant response rating, Rape (rape; Preemergence, Rate 62 g/ha): 0 | Plant response rating, Rape (rape; Preemergence, Rate 125 g/ha): 0 | Rape plant response rating (rape; [5]): 3 | Rape plant response rating (rape; [6]): 6 | Rape plant response rating (rape; [7]): 0 | Rape plant response rating (rape; [8]): 0 | Soybean plant response rating (soybean; [1]): 1 | Plant response rating, Soybean (soybean; Preemergence, Rate 62 g/ha): 0 | Plant response rating, Soybean (soybean; Preemergence, Rate 125 g/ha): 0 | Soybean plant response rating (soybean; [5]): 0 | Soybean plant response rating (soybean; [6]): 0 | Soybean plant response rating (soybean; [7]): 1 | Soybean plant response rating (soybean; [8]): 1 | Sugarbeets plant response rating (sugar beet; [1]): 0 | Plant response rating, Sugarbeets (sugar beet; Preemergence, Rate 62 g/ha): 0 | Plant response rating, Sugarbeets (sugar beet; Preemergence, Rate 125 g/ha): 0 | Sugarbeets plant response rating (sugar beet; [5]): 2 | Sugarbeets plant response rating (sugar beet; [6]): 6 | Sugarbeets plant response rating (sugar beet; [7]): 0 | Sugarbeets plant response rating (sugar beet; [8]): 0 | Velvetleaf plant response rating (velvetleaf; [1]): 2 | Plant response rating, Velvetleaf (velvetleaf; Preemergence, Rate 62 g/ha): 0 | Plant response rating, Velvetleaf (velvetleaf; Preemergence, Rate 125 g/ha): 0 | Velvetleaf plant response rating (velvetleaf; [5]): 1 | Velvetleaf plant response rating (velvetleaf; [6]): 4 | Velvetleaf plant response rating (velvetleaf; [7]): 0 | Velvetleaf plant response rating (velvetleaf; [8]): 0 | Wheat plant response rating (wheat; [1]): 0 | Plant response rating, Wheat (wheat; Preemergence, Rate 62 g/ha): 0 | Plant response rating, Wheat (wheat; Preemergence, Rate 125 g/ha): 0 | Wheat plant response rating (wheat; [5]): 0 | Wheat plant response rating (wheat; [6]): 6 | Wheat plant response rating (wheat; [7]): 0 | Wheat plant response rating (wheat; [8]): 0 | Wild oats plant response rating (wild oat; [1]): 0 | Plant response rating, Wild oats (wild oat; Preemergence, Rate 62 g/ha): 0 | Plant response rating, Wild oats (wild oat; Preemergence, Rate 125 g/ha): 0 | Wild oats plant response rating (wild oat; [5]): 3 | Wild oats plant response rating (wild oat; [6]): 7 | Wild oats plant response rating (wild oat; [7]): 0 | Wild oats plant response rating (wild oat; [8]): 0 | Nutsedge plant response rating (purple nutsedge; [1]): 0 | Plant response rating, Nutsedge (purple nutsedge; Preemergence, Rate 62 g/ha): 0 | Plant response rating, Nutsedge (purple nutsedge; Preemergence, Rate 125 g/ha): 0 | Nutsedge plant response rating (purple nutsedge; [5]): 0 | Nutsedge plant response rating (purple nutsedge; [6]): 0 | Nutsedge plant response rating (purple nutsedge; [7]): 0 | Nutsedge plant response rating (purple nutsedge; [8]): 0 | Plant response rating, Rice (0 to 10 scale, 0 is no effect, 10 is complete control) (rice; [9]): 0 | Rice plant response rating (0 to 10 scale, 0 is no effect, 10 is complete control) (rice; [10]): 0 | Rice plant response rating (rice; [11]): 0 | Rice plant response rating (rice; [12]): 0 | Plant response rating, S. Flatsedge (0 to 10 scale, 0 is no effect, 10 is complete control) (smallflower flatsedge; [9]): 0 | S. Flatsedge plant response rating (0 to 10 scale, 0 is no effect, 10 is complete control) (smallflower flatsedge; [10]): 0 | S. Flatsedge plant response rating (smallflower flatsedge; [11]): 0 | S. Flatsedge plant response rating (smallflower flatsedge; [12]): 0 | Plant response rating, Ducksalad (0 to 10 scale, 0 is no effect, 10 is complete control) (duck salad; [9]): 0 | Ducksalad plant response rating (0 to 10 scale, 0 is no effect, 10 is complete control) (duck salad; [10]): 0 | Ducksalad plant response rating (duck salad; [11]): 0 | Ducksalad plant response rating (duck salad; [12]): 0 | Plant response rating, Barnyardgrass (0 to 10 scale, 0 is no effect, 10 is complete control) (bamyardgrass; [9]): 0 | Barnyardgrass plant response rating (0 to 10 scale, 0 is no effect, 10 is complete control) (bamyardgrass; [10]): 0 | Barnyardgrass plant response rating (bamyardgrass; [11]): 0 | Barnyardgrass plant response rating (bamyardgrass; [12]): 0
